The target of one assay is T1, RAR γ (Homo sapiens, UniProt P13631).
T1 sequence (P13631 1-454): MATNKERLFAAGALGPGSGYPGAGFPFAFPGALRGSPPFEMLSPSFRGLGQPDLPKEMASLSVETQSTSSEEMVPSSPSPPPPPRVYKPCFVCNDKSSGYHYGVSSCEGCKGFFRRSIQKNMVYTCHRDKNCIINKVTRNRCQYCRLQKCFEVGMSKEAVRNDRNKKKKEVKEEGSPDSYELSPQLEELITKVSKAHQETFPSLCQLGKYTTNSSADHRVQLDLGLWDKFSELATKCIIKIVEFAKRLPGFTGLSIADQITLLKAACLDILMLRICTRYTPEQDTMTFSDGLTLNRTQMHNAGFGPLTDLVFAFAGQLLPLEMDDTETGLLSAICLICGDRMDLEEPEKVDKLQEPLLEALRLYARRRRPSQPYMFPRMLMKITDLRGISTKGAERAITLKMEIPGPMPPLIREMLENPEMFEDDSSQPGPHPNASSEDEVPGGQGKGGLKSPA
Briefly: RAR γ Kd. The settings on record: last item of cell EC50/(EFFICACY)/Kd. The assay is classed as binding.

The next assay has as its target T2, CYP26B (P450RAI-2) (Homo sapiens, UniProt Q9NR63).
T2 construct: expressed in transfected cells; host or cells: HeLa
T2 sequence (Q9NR63 1-512): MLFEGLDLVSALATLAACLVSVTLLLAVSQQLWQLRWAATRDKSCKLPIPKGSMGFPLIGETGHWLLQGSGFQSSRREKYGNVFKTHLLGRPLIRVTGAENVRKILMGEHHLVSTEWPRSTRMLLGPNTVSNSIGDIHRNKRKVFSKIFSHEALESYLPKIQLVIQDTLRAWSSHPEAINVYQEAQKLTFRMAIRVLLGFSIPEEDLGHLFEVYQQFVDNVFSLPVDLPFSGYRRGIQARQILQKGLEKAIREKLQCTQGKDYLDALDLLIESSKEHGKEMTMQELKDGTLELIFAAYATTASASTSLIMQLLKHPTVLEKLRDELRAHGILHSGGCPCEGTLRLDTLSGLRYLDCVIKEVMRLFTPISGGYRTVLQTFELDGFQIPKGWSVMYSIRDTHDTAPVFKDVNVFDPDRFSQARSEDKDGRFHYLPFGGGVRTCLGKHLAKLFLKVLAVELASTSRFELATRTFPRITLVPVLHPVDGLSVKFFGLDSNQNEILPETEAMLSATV
Briefly: Cell-based inhibition of RA metabolism in CYP26B stably transfected HeLa cells. The conditions noted are these: stably transfected HeLa cells, [3H]-RA, 3 hours at 37° C.; read-out: P450RAI-2 Whole cell IC50. The procedure:
(§1) In brief, CYP26A or CYP26B can be stably transfected into HeLa cells. Exponentially growing cells are harvested by incubating in trypsin. Cells are then washed and plated in a 48-well plate at 5×10^5 cells in 0.2 ml MEM medium containing 10% FBS and 0.05 μCi [^3H]-RA in the presence or absence of increasing concentrations of the test compounds. The compounds are diluted in 100% DMSO and then added in triplicate wells at either 10, 1 or 0.1 μM final concentration. As a positive control for RA metabolism inhibition, cells are also incubated with ketoconazole at 100, 10 and 1 μM. Cells are incubated for 3 hours at 37 degrees C. The retinoids are then extracted using the procedure of Bligh et al., Canadian Journal of Biochemistry 37: 911-917 (1959), modified by using methylenechloride instead of chloroform. This publication by Bligh et al., is specifically incorporated herein by reference. The water soluble radioactivity is quantified using a β scintillation counter, and IC50 values are determined.
(§2) CYP26A and CYP26B stably transfected HeLa cells were maintained in 100 mm tissue culture dishes in MEM medium containing 10% FBS and 100 μg/ml hygromycin.
(§3) Exponentially growing cells were harvested by incubating in trypsin. Cells were then washed with 1×PBS and plated in a 48-well plate at 5×10^5 cells in 0.2 ml MEM medium containing 10% FBS and 0.05 μCi [^3H]-RA in the presence or absence of increasing concentrations of the test compounds. The compounds were diluted in 100% DMSO and then added to triplicate wells at final concentrations of 10, 1 or 0.1 μM. As a positive control for RA metabolism inhibition, cells were also incubated with ketoconazole at 100, 10 and 1 μM. Cells were incubated for 3 hours at 37° C. The retinoids were then extracted using a modified Bligh and Dyer procedure (Bligh and Dyer, supra (1959)), in which methylene-chloride, as opposed to chloroform, was used, and the aqueous soluble radioactivity quantified using a β-scintillation counter. ID50 values represent the concentration of inhibitor required to inhibit RA metabolism by 50 percent and were derived manually from log-transformed data.

For a further assay, the target named is T3, CYP26A (P450RAI-1) (Homo sapiens, UniProt O43174).
T3 construct: expressed in transfected cells; host or cells: HeLa
T3 sequence (O43174 1-497): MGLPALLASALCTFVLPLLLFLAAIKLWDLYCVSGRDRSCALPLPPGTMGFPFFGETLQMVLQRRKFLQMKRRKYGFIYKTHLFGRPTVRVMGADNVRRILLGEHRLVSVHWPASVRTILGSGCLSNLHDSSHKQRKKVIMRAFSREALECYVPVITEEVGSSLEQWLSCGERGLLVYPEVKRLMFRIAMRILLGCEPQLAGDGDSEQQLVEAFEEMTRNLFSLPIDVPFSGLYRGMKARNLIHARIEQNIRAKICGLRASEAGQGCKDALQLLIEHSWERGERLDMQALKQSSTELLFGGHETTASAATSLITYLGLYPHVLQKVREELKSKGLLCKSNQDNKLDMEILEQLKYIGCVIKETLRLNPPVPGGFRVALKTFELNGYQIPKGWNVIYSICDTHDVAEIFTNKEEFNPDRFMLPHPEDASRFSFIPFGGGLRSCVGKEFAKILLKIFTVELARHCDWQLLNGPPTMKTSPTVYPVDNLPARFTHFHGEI
Briefly: Cell-based inhibition of RA metabolism in CYP26A stably transfected HeLa cells. The conditions noted are these: stably transfected HeLa cells, [3H]-RA, 3 hours at 37° C.; read-out: P450RAI-1 Whole cell IC50. The procedure: as §1, §2, §3

For assay [1], the target named is T4, RAR β (Homo sapiens, UniProt P10826).
T4 sequence (P10826 1-455): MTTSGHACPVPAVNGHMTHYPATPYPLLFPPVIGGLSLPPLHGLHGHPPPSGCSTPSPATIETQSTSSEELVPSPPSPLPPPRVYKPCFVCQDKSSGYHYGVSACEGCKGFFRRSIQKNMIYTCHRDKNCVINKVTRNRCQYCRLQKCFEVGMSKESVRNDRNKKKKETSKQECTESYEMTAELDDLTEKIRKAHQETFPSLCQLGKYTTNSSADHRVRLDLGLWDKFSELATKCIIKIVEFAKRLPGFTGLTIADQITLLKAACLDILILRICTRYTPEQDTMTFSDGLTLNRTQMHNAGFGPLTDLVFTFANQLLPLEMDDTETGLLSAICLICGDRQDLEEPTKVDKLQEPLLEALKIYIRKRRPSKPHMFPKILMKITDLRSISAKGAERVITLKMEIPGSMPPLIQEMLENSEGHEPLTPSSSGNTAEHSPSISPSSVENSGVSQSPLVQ
Briefly: RAR β EC50/(efficacy). It counts as cell-based. The conditions noted are these: value in brackets of cell EC50/(EFFICACY)/Kd.

The next assay addresses T5, RAR α (Homo sapiens, UniProt P10276).
T5 sequence (P10276 1-462): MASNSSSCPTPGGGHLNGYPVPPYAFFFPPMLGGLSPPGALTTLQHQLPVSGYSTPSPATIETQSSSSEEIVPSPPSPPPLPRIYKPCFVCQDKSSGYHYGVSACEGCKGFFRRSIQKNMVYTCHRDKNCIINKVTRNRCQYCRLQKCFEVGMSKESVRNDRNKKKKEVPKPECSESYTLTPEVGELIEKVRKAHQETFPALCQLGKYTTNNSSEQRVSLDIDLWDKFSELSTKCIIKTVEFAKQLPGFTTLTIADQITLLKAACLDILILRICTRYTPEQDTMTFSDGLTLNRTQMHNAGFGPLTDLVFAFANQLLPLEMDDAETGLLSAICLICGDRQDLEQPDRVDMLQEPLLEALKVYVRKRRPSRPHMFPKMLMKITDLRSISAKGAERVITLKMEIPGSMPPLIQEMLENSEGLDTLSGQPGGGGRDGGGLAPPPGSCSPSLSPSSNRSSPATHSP
Briefly: RAR α Kd. It counts as binding. The conditions noted are these: last item of cell EC50/(EFFICACY)/Kd.

For assay [2], the target named is T4, RAR β. Briefly: RAR β Kd. The assay is classed as binding. The settings on record: last item of cell EC50/(EFFICACY)/Kd.

We go through nine molecules from patent US7468391B2, “Methods for treating retinoid responsive disorders using selective inhibitors of CYP26A and CYP26B” (Allergan, Inc., priority 2003, dated 2008).

As usually defined, the Kd is the constant that tells how readily two partners part at equilibrium. Higher therefore signals a looser complex. As a reminder, the IC50 is the concentration that gives 50% inhibition. For `CC(C(=O)O)c1ccc(C#Cc2cc(CN(C)C3CC3)c3c(c2)C(C)(C)CC(C)(C)O3)cc1` (stereo not shown) [Compound 8, 2-(4-{8-[(Cyclopropyl-methyl-amino)-methyl]-2,2,4,4-tetramethyl-chroman-6-ylethynyl}-phenyl)-propionic acid], the Kd is over 10 µM at RAR γ, 0.957 µM at RAR α and 4.8 µM at RAR β [2]. Also, the concentration for half-maximal inhibition (IC50) on CYP26B (P450RAI-2) was over 10 µM; on CYP26A (P450RAI-1), 0.05 µM. Also, the “RAR β (EFFICACY)” value on RAR β [1] was 15.
In the case of `CC(C)OC(=O)c1ccc(C#Cc2ccc(C(C)C(=O)O)cc2)cc1CN(C)C1CC1` (stereo not shown) [Compound 40, 4-[4-(1-Carboxy-ethyl)-phenylethynyl]-2-[(cyclopropyl-methyl-amino)-methyl]-benzoic acid isopropyl ester], the Kd on RAR γ, at RAR α and on RAR β [2] was over 10 µM throughout. Also, the concentration for half-maximal inhibition (IC50) is over 10 µM at CYP26B (P450RAI-2) and 1.3 µM at CYP26A (P450RAI-1).
In the case of `CC(C)OC(=O)c1cccc(C#Cc2ccc(CC(=O)O)c(F)c2)c1` [Compound 44, 3-(4-Carboxymethyl-3-fluoro-phenylethynyl)-benzoic acid isopropyl ester], the values for the Kd at RAR γ, at RAR α and at RAR β [2] were over 10 µM, over 10 µM and 8.17 µM, respectively. Besides, the IC50 on CYP26B (P450RAI-2) turned out to be 7.5 µM; at CYP26A (P450RAI-1), 0.7 µM.
Turning to `CN(C1CC1)C1CCC(C)(C)c2cc(C#Cc3ccc(C(C)(C)C(=O)O)cc3)cc(C3CC3)c21` (stereo not shown) [Compound 50, 2-{4-[4-Cyclopropyl-5-(cyclopropyl-methyl-amino)-8,8-dimethyl-5,6,7,8-tetrahydro-naphthalen-2-ylethynyl]-phenyl}-2-methyl-propionic acid], the Kd on RAR γ, at RAR α and on RAR β [2] was over 10 µM each time. In addition, the results for the IC50 at CYP26B (P450RAI-2) and on CYP26A (P450RAI-1) were over 10 µM and 0.1 µM, respectively.
In the case of `Cc1cc2c(cc1C#Cc1ccc(C(C)(C)C(=O)O)cc1)C(C)(C)CCC2N(C)C1CC1` (stereo not shown) [Compound 53, 2-{4-[5-(Cyclopropyl-methyl-amino)-3,8,8-trimethyl-5,6,7,8-tetrahydro-naphthalen-2-ylethynyl]-phenyl}-2-methyl-propionic acid], the results for the Kd on RAR γ, on RAR α and on RAR β [2] were over 10 µM, over 10 µM and 3.91 µM, respectively. Besides, the IC50 stood at 5 µM at CYP26B (P450RAI-2) and 0.5 µM at CYP26A (P450RAI-1).
For the molecule `CCc1cc(C#Cc2ccc(C(C)(C)C(=O)O)cc2)cc2c1C(N(C)C1CC1)CCC2(C)C` (stereo not shown) [Compound 54, 2-{4-[5-(Cyclopropyl-methyl-amino)-4-ethyl-8,8-dimethyl-5,6,7,8-tetrahydro-naphthalen-2-ylethynyl]-phenyl}-2-methyl-propionic acid], the results for the Kd on RAR γ, at RAR α and on RAR β [2] were over 10 µM, 1.81 µM and 5.09 µM, respectively. The figures for the IC50 on CYP26B (P450RAI-2) and at CYP26A (P450RAI-1) were over 10 µM and 0.2 µM, respectively.
For `CCOC(=O)C1=CCC(C)(C)c2cc(C#Cc3ccc(CC(=O)O)c(F)c3)c(C)cc21` [Compound 56, 6-(4-Carboxymethyl-3-fluoro-phenylethynyl)-4,4,7-trimethyl-3,4-dihydro-naphthalene-1-carboxylic acid ethyl ester], the Kd on RAR γ, at RAR α and at RAR β [2] was over 10 µM each time. In addition, the IC50 on CYP26A (P450RAI-1) turned out to be 0.5 µM. Also, the “RAR β (EFFICACY)” value on RAR β [1] is listed as 30.
Consider `C#Cc1cc(C#Cc2ccc(CC(=O)O)c(F)c2)cc(C(=O)OC(C)C)c1` [Compound 61, 3-(4-Carboxymethyl-3-fluoro-phenylethynyl)-5-ethynyl-benzoic acid isopropyl ester], for which the equilibrium dissociation constant (Kd) on RAR γ, on RAR α and at RAR β [2] was over 10 µM in each case. Besides, the values for the IC50 at CYP26B (P450RAI-2) and at CYP26A (P450RAI-1) were 8.1 µM and 0.22 µM, respectively.
On to `C#Cc1cc(C#Cc2ccc(CC(=O)OCOC(C)=O)c(F)c2)cc(C(=O)OC(C)C)c1` [Compound 62, 3-(4-Acetoxymethoxycarbonylmethyl-3-fluoro-phenylethynyl)-5-ethynyl-benzoic acid isopropyl ester], for which the Kd on RAR γ, at RAR α and at RAR β [2] was over 10 µM each time. Further, the IC50 at CYP26B (P450RAI-2) was 6.1 µM; at CYP26A (P450RAI-1) it was 0.4 µM.
